According to patent US20230212180A1, “SUBSTITUTED PYRAZINE COMPOUND, PHARMACEUTICAL COMPOSITION COMPRISING SAME, AND USE THEREOF” (Sichuan Kelun-Biotech Biopharmaceutical Co., Ltd., priority 2020, published 2023):
Read-outs that look alike come from different tables or passages of the source.

What was measured:
[1] = molecular target: T1, recombinant full-length human PTPN11 (SHP2) (Homo sapiens, UniProt Q06124); test: Inhibition of in vitro enzyme activity of SHP2 (DiFMUP fluorescence endpoint assay); type: biochemical; conditions: SHP2 0.5 nM, DiFMUP 200 μM, IRS-1 0.5 μM; 60 min incubation
T1 construct: recombinant full-length human PTPN11 (SHP2), active (SignalChem); purchased SignalChem
T1 sequence (Q06124 1-593): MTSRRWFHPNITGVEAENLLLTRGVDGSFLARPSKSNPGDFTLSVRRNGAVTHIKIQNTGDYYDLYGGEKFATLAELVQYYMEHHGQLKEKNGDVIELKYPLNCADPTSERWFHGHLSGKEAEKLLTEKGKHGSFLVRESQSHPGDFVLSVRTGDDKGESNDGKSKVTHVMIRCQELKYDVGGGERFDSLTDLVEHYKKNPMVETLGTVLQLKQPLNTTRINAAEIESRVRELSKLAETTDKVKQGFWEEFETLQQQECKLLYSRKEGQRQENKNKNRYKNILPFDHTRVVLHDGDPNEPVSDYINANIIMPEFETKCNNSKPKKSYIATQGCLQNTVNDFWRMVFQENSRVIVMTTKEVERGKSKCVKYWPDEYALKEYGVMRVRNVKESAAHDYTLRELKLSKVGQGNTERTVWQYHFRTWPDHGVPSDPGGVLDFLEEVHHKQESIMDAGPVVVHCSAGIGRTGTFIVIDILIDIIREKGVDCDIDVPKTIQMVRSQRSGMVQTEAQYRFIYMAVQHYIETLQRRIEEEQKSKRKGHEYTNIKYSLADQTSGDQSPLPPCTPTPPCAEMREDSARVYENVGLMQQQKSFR
Method: Test Example 1: Experiment on the Inhibition of In Vitro Enzyme Activity of SHP2 (Protein Phosphatase)
phosphatase: recombinant full-length human PTPN11 (SHP2), active (SignalChem);
substrate: 6,8-difluoro-4-methylumbelliferyl phosphate (DiFMUP) (Invitrogen);
activating peptide: IRS1_pY1172(dPEG8)pY1222 (IRS1) (BPS Bioscience);
terminator: bpv(phen) (bpv) (Abcam).
SHP2 concentration: 0.5 nM;
DiFMUP concentration: 200 μM;
IRS-1 concentration: 0.5 μM;
bpv concentration: 160 μM;
buffer systems: 60 mM Hepes pH 7.2; 75 mM NaCl; 75 mM KCl; 0.05% surfactant P20; 1 mM EDTA; 5 mM DTT;
incubation duration of compound and enzyme: 60 minutes;
reaction time of enzyme and substrate: 30 minutes;
parameters for microplate reader: BMG PHERAstar fluorescence microplate reader at an excitation wavelength of 340 nm and an emission wavelength of 450 nm.
Test group: A mixture of the test compound and the phosphatase SHP2 together with the activating peptide IRS-1 were incubated in the buffer system at room temperature for 60 minutes. The substrate DiFMUP was added to initiate the reaction and incubated at room temperature for 30 minutes. Thereafter, bpv was added to terminate the reaction. The reaction plate was placed in the microplate reader, and the fluorescence intensities of the wells in the plate were measured using an endpoint assay.
Negative group: The experimental method for the negative group was the same as that for the test group, except that the test compound was substituted with 0.05% aqueous solution of DMSO.
Blank group: The experimental method for the blank group was the same as that for the test group, except that the test compound was substituted with 0.05% aqueous solution of DMSO and that SHP2 was not added.
The relative inhibitory activity was calculated for the test group at each concentration based on the following equation: inhibition rate (%)=100%−(the fluorescence intensity of the test group−the fluorescence intensity of the blank group)/(the fluorescence intensity of the negative group−the fluorescence intensity of the blank group)×100%. The half maximal inhibitory concentration (IC50) of the compound was calculated by fitting the curve according to the four-parameter logistic model.

CYP2D6 = molecular target: T2, CYP2D6 (Homo sapiens, UniProt P10635); test: Biochemical assay for CYP enzyme inhibition, P450-Glo CYP2D6 Screening System; type: in vitro ADME
T2 construct: purchased Promega
T2 sequence (P10635 whole entry): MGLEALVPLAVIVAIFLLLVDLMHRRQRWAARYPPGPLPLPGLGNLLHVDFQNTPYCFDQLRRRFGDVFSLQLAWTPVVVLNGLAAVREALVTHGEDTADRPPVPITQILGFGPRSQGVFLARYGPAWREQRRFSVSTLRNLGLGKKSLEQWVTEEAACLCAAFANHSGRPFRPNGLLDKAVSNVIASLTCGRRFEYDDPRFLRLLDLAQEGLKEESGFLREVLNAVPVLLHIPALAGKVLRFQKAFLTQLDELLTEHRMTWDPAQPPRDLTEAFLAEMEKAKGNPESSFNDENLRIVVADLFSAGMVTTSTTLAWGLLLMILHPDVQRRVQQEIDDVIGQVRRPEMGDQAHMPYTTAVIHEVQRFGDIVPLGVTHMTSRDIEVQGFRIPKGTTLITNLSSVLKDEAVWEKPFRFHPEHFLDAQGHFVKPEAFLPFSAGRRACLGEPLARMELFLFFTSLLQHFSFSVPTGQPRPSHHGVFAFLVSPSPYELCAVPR
Method: Test Example 5: Biochemical Assay for CYP Enzyme (Cytochrome P450) Inhibition
P450-Glo™ CYP2D6 Screening System, (Promega);
BMG PHERAstar FS Luminescent.
The experiments were carried out separately according to the instructions of the kits. The steps were as follows:
3.2. Inhibition Against CYP2D6:
Test group: The test compounds at different concentrations were added into a microplate, and Luciferin-ME EGE (3 μM), K3PO4 (100 mM), and CYP2D6 (5 nM) were added into each well, and pre-incubated at room temperature for 10 min. Thereafter, an NADPH regeneration system was added. The mixture was reacted at 37° C. for 30 min. Finally, an equal volume of detection buffer was added and incubated at room temperature for 20 min, followed by chemiluminescence detection.
Negative control group: The experimental method for the negative control group was the same as that for the test group, except that the test compound was not added.
Blank control group: The experimental method for the blank control group was the same as that for the test group, except that the test compound was not added and that CYP2D6 was replaced with CYP2D6 Membrance (5 nM).
Percentage inhibition=(1−(the chemiluminescent signal value of the test compound group at a certain test concentration−the chemiluminescent signal value of the blank control group)/(the chemiluminescent signal value of the negative control group−the chemiluminescent signal value of the blank control group))×100%.
When the percentage inhibition was between 30% and 80%, a single value or a value range of the half maximal inhibitory concentration (IC50) of the compound against the CYP enzyme was estimated based on the following equation: IC50=X×(1−percentage inhibition)/percentage inhibition, wherein X was the test concentration of the compound.

[2] = estimated from percentage inhibition, read-out: IC50 (μM) CYP2D6

`C[C@@H]1OCC2(CCN(c3ncc(Sc4ccnc(N5CCCC5CO)c4Cl)nc3CO)CC2)[C@@H]1N` (stereo partly shown) [Example 2] showed an IC50 [1] of 1.82 nM and an IC50 (CYP2D6; [2]) greater than 10 µM.
`CC(C)(O)C1CN(c2nccc(Sc3cnc(N4CCC5(CC4)COC[C@H]5N)c(CO)n3)c2Cl)C1` [Example 13, (S)-2-(1-(4-(5-(4-amino-2-oxa-8-azaspiro[4.5]decan-8-yl)-6-(hydroxymethyl)pyrazin-2-ylthio)-3-chloropyridin-2-yl)azetidin-3-yl)propan-2-ol] was tested, and the IC50 [1] was 4.9 nM and the IC50 (CYP2D6; [2]) was greater than 10 µM.
`CC(C)(O)C1CN(c2nccc(Sc3ncc(N4CCC5(CC4)Cc4ncccc4[C@H]5N)nc3N)c2Cl)C1` [Example 46, (S)-2-(1-(4-(3-amino-5-(5-amino-5,7-dihydrospiro[cyclopenta[b]pyridine-6,4′-piperidin]-1′-yl)pyrazin-2-ylthio)-3-chloropyridin-2-yl)azetidin-3-yl)propan-2-ol] gave an IC50 [1] of 2.6 nM and an IC50 (CYP2D6; [2]) greater than 10 µM.
For `C[C@@H]1OCC2(CCN(c3ncc(Sc4ccnc(N5CC(CS(C)(=O)=O)C5)c4Cl)nc3CO)CC2)[C@@H]1N` [Example 26, (3-((3S,4S)-4-amino-3-methyl-2-oxa-8-azaspiro[4.5]decan-8-yl)-6-(3-chloro-2-(3-(methylsulfonylmethyl)azetidin-1-yl)pyridin-4-ylthio)pyrazin-2-yl)methanol], the IC50 [1] was 0.7 nM and the IC50 (CYP2D6) was greater than 10 µM.
`C[C@@H]1OCC2(CCN(c3ncc(Sc4ccnc(N5CC(CC#N)C5)c4Cl)nc3CO)CC2)[C@@H]1N` [Example 5, 2-(1-(4-(5-((3S,4S)-4-amino-3-methyl-2-oxa-8-azaspiro[4.5]decan-8-yl)-6-(hydroxymethyl)pyrazin-2-ylthio)-3-chloropyridin-2-yl)azetidin-3-yl)acetonitrile] showed an IC50 [1] of 1.22 nM and an IC50 (CYP2D6) greater than 10 µM.
`CC(C)(O)C1CN(c2nccc(Sc3cnc(N4CCC5(CC4)Cc4ccccc4[C@H]5N)c(CO)n3)c2Cl)C1` [Example 23, (S)-2-(1-(4-(5-(1-amino-1,3-dihydrospiro[indene-2,4′-piperidin]-1′-yl)-6-(hydroxymethyl)pyrazin-2-ylthio)-3-chloropyridin-2-yl)azetidin-3-yl)propan-2-ol] gave an IC50 [1] of 1.9 nM and an IC50 (CYP2D6; [2]) greater than 10 µM.
Work on `C[C@@H]1OCC2(CCN(c3ncc(Sc4ccnc(N5CC(C#N)(CO)C5)c4Cl)nc3CO)CC2)[C@@H]1N` [Example 47, 1-(4-(5-((3S,4S)-4-amino-3-methyl-2-oxa-8-azaspiro[4.5]decan-8-yl)-6-(hydroxymethyl)pyrazin-2-ylthio)-3-chloropyridin-2-yl)-3-(hydroxymethyl)azetidine-3-carbonitrile] yielded an IC50 [1] of 3.2 nM and an IC50 (CYP2D6) greater than 10 µM.
With `COCC1CN(c2nccc(Sc3cnc(N4CCC5(CC4)CO[C@@H](C)[C@H]5N)c(CO)n3)c2Cl)C1` [Example 21, (3-((3S,4S)-4-amino-3-methyl-2-oxa-8-azaspiro[4.5]decan-8-yl)-6-(3-chloro-2-(3-(methoxymethyl)azetidin-1-yl)pyridin-4-ylthio)pyrazin-2-yl)methanol] the IC50 [1] was 1.15 nM and the IC50 (CYP2D6) was greater than 10 µM.
`CC(C)(O)C1CN(c2nccc(Sc3cnc(N4CCC5(CC4)Cc4ncccc4[C@H]5N)c(CO)n3)c2Cl)C1` [Example 43, (S)-2-(1-(4-(5-(5-amino-5,7-dihydrospiro[cyclopenta[b]pyridine-6,4′-piperidin]-1′-yl)-6-(hydroxymethyl)pyrazin-2-ylthio)-3-chloropyridin-2-yl)azetidin-3-yl)propan-2-ol] gave an IC50 [1] of 2.6 nM and an IC50 (CYP2D6; [2]) greater than 10 µM.
`C[C@@H]1OCC2(CCN(c3cnc(Sc4ccnc(N5CC(C(C)(C)O)C5)c4Cl)cn3)CC2)[C@@H]1N` [Example 28, 2-(1-(4-(5-((3S,4S)-4-amino-3-methyl-2-oxa-8-azaspiro[4.5]decan-8-yl)pyrazin-2-ylthio)-3-chloropyridin-2-yl)azetidin-3-yl)propan-2-ol] gave an IC50 [1] of 2.45 nM and an IC50 (CYP2D6) greater than 10 µM.
`Cc1nc(N2CCC3(CC2)CO[C@@H](C)[C@H]3N)c(CO)nc1Sc1ccnc(N2CCCC2CO)c1Cl` (stereo partly shown) [Example 1] showed an IC50 [1] of 6.03 nM and an IC50 (CYP2D6) greater than 10 µM.
In the case of `C[C@@H]1OCC2(CCN(c3ncc(Sc4ccnc(N5CC(C(C)(C)O)C5)c4F)nc3CO)CC2)[C@@H]1N` [Example 40, 2-(1-(4-(5-((3S,4S)-4-amino-3-methyl-2-oxa-8-azaspiro[4.5]decan-8-yl)-6-(hydroxymethyl)pyrazin-2-ylthio)-3-fluoropyridin-2-yl)azetidin-3-yl)propan-2-ol], the IC50 [1] is reported as 4.13 nM and the IC50 (CYP2D6) is reported as greater than 10 µM.
In the case of `CC(C)(O)C1CN(c2nccc(Sc3cnc(N4CCC5(CC4)Oc4ccccc4[C@H]5N)c(CO)n3)c2Cl)C1` [Example 22, (R)-2-(1-(4-(5-(3-amino-3H-spiro[benzofuran-2,4′-piperidin]-1′-yl)-6-(hydroxymethyl)pyrazin-2-ylthio)-3-chloropyridin-2-yl)azetidin-3-yl)propan-2-ol], the IC50 [1] is reported as 4.3 nM and the IC50 (CYP2D6; [2]) is reported as greater than 10 µM.
With `C[C@@H]1OCC2(CCN(c3ncc(Sc4ccnc(N5CC(C)(CS(C)(=O)=O)C5)c4Cl)nc3CO)CC2)[C@@H]1N` [Example 29, (3-((3S,4S)-4-amino-3-methyl-2-oxa-8-azaspiro[4.5]decan-8-yl)-6-(3-chloro-2-(3-methyl-3-(methylsulfonylmethyl)azetidin-1-yl)pyridin-4-ylthio)pyrazin-2-yl)methanol] the IC50 [1] was 1.68 nM and the IC50 (CYP2D6) was greater than 10 µM.
`C[C@@H]1OCC2(CCN(c3ncc(Sc4ccnc(N5CC(CO)C5)c4Cl)nc3CO)CC2)[C@@H]1N` [Example 6, (3-((3S,4S)-4-amino-3-methyl-2-oxa-8-azaspiro[4.5]decan-8-yl)-6-(3-chloro-2-(3-(hydroxymethyl)azetidin-1-yl)pyridin-4-ylthio)pyrazin-2-yl)methanol] was tested, and the IC50 [1] was 1.76 nM and the IC50 (CYP2D6) was greater than 10 µM.
In the case of `Cc1nc(N2CCC3(CC2)CO[C@@H](C)[C@H]3N)c(CO)nc1Sc1ccnc(N2CC(CS(C)(=O)=O)C2)c1Cl` [Example 25, (3-((3S,4S)-4-amino-3-methyl-2-oxa-8-azaspiro[4.5]decan-8-yl)-6-(3-chloro-2-(3-(methylsulfonylmethyl)azetidin-1-yl)pyridin-4-ylthio)-5-methylpyrazin-2-yl)methanol], the IC50 [1] is reported as 7 nM and the IC50 (CYP2D6) is reported as greater than 10 µM.
`C[C@@H]1OCC2(CCN(c3ncc(Sc4ccnc(NCC5(O)CC5)c4Cl)nc3CO)CC2)[C@@H]1N` [Example 15, 1-((4-(5-((3S,4S)-4-amino-3-methyl-2-oxa-8-azaspiro[4.5]decan-8-yl)-6-(hydroxymethyl)pyrazin-2-ylthio)-3-chloropyridin-2-ylamino)methyl)cyclopropan-1-ol] was tested, and the IC50 [1] was 2.4 nM and the IC50 (CYP2D6) was greater than 10 µM.
